Reference: US12427133B2, “Combination therapies comprising schweinfurthin compounds for treating cancer” (The Penn State Research Foundation, priority 2018, dated 2025)

Experiments:
B16.F10 melanoma cells = assay: Surface calreticulin expression (immunogenic cell death) by flow cytometry; type: cell-based, mouse (C57BL/6); settings: 24 hours of treatment
Protocol: B16.F10 melanoma cells were plated at 1.5-2.0×10^5 cells per well in 24-well plates in RPMI-1640 medium containing standard supplements and 10% fetal bovine serum (FBS) and incubated overnight at 37° C., 5% CO2. Compounds solubilized in dimethyl sulfoxide (DMSO) were added at the indicated concentrations and incubated for a further 24 hours at 37° C., 5% CO2. Control wells were treated with similar dilutions of DMSO. Cells were trypsinized and washed with FACS buffer (2% FBS+0.1% NaN3 in PBS) and seeded at 1-2×10^5 per well in 96-well round-bottom plates. Cells were stained with rabbit anti-calreticulin polyclonal antibody (1:100, Abcam ab2907) in FACS buffer for 30 minutes at 4° C. Following two washes, cells were labeled with goat anti-rabbit Alexa Fluor 488 (1:500, Thermo Fisher A11070) in FACS buffer for 30 minutes at 4° C. Cells were washed twice and labeled with 7-aminoactinomyosin D in order to exclude non-viable cells. Samples were immediately run on a BD LSR Fortessa flow cytometer and the data analyzed using FlowJo software.
(§1) Differences in tumor growth curves were evaluated by linear mixed models for longitudinal analysis and Kaplan-Meier survival curves were evaluated by log rank test. Differences in calreticulin expression were determined by two-way ANOVA with Bonferroni post-test. All data were analyzed using Graphpad Prism (version 7) or SAS (version 9.4) software.

B16.F10 tumors = assay: In vivo tumor growth, survival and regression in the B16.F10 melanoma model with anti-PD-1 therapy; set-up: species or system C57BL/6J mice
Protocol: Groups of 8-week old C57BL/6J female mice were inoculated with 1×10^5 freshly cultured B16.F10 tumor cells subcutaneously in the left flank. Mice were monitored for the development of tumors and when palpable were randomized into groups. Mice received αPD-1 (clone RMP1-14; BioXCell) or control rat IgG (Sigma) at 200 μg/day intraperitoneally in a volume of 200 μl PBS twice per week for 3 weeks. Mice received daily TTI-4242 or TTI-3114 at 30 mg/kg/day or vehicle only for 5 consecutive days in a total volume of 100 μL. Tumors were measured with digital calipers and the tumor volume calculated as (length×width^2)/2. Mice were euthanized when the tumor volume exceeded 1500 mm^3, developed ascites or necrosis, or when mice became lethargic.
as §1

[1] = Tolerability / maximum tolerated dosage; settings: in vivo
Protocol: TTI-7106 is used for these experiments near the maximum tolerated dosage (MTD) of 40 mg/kg. […] TTI-7106 is authenticated in batches based on the NMR spectroscopy and mass spectrometry. All experiments are carried out on equal groups of male and female mice.

SMILES	concentration at which high levels of surface calreticulin expression are induced (B16.F10 melanoma cells)	induction of surface calreticulin (B16.F10 melanoma cells; flow cytometry)	tumors / mice showing initial tumor regression (B16.F10 tumors; during the period of schweinfurthin administration) [%]	tumor growth (rate / delay) (B16.F10 tumors; established s.c. B16.F10 tumors, schweinfurthin 30 mg/kg/day for 5 consecutive days, αPD-1 200 μg i.p. twice per week for 3 weeks)	maximum tolerated dosage (MTD) [1]	toxicity ([1]; 30 mg/kg)	MTD ([1]; both sexes, mouse) [mg/kg]
COc1cc(/C=C/c2cc(O)c3c(c2)C[C@@H]2C(C)(C)[C@H](O)CC[C@@]2(C)O3)cc2c1ccn2C [TTI-4242]	below 2 nM	induced surface calreticulin	50	neither αPD-1 alone (FIG. 2C) nor TTI-4242 alone (FIG. 2D) impacted tumor growth rate	nearly identical MTD	low toxicity	–
COc1cc(/C=C/c2cc(O)c3c(c2)C[C@@H]2C(C)(C)[C@H](O)CC[C@@]2(C)O3)cc(O)c1/C=C/c1c(C)noc1C [TTI-7106]	–	–	–	–	–	–	40
